Where two headings read alike, the source gives them in different places.
What was measured:
C. elegans = C. elegans dose-response (viability, minimum lethal concentration); assay type: in vivo, Caenorhabditis elegans; settings: Caenorhabditis elegans, 72 h, L1 worms, 3 days at 20° C.
Method: Forty microliters of an HB101 E. coli bacterial suspension in liquid NGM (nematode growth media—see ref. 42 for the recipe) was added to each well of a 96-well flat-bottom culture plate, after which approximately 25 synchronized L1 worms, in 10 μl of M9 buffer (see ref. 43 for the recipe), were added to each well. The synchronized L1 worms were obtained from an embryo preparation performed the previous day (see ref. 43 for the protocol). For the L1 assays, 0.5 μl of test compound solution (or DMSO alone) was immediately added to the wells using a multichannel pipette; the final DMSO concentration is 1% (v/v). The worms were incubated for 3 days at 20° C. and the number of viable animals was counted.
At least three biological replicates were performed for each dose-response assay. For each biological replicate, two technical replicates were performed and the numbers of viable animals for each technical replicate were combined (i.e. ˜ 50 worms assayed per concentration). The number of viable worms at each concentration was divided by the corresponding DMSO control value to give the “relative viability” for each concentration. The “relative viability” values were then averaged across the biological replicates. Minimum lethal concentration was defined as the lowest concentration at which at least 20% of worms die.

M. incognita = test: Meloidogyne incognita infectivity assay (soil, tomato roots); assay type: in vivo; settings: Meloidogyne incognita, 1344 h, 45 μM in soil, 8 weeks, eggs per mg root relative to DMSO control, read-out: % effectiveness at inhibiting reproduction of M. incognita
Excerpt: An M. incognita population originally collected from grape (Vitis vinifera) in Parlier, California, was used for all experiments, and they were maintained on tomato plants (Solanum lycopersicum ‘Rutgers’) as previously described^47. Infective J2 juveniles were collected as described in ref. 47.

tomato plants = test: Root mass of tomato plants in the soil infectivity assay; settings: 45 μM in soil, 8 weeks
Method: For the infectivity assays, 90 grams of soil (1:1 sand:loam mix) was added to each cell of several 6-cell plastic garden packs. The soil was drenched with 18 mL of deionized water containing dissolved test compound or DMSO alone. 2,500 infective J2 juveniles were then added to the soil in 2 mL of deionized water, for a total water volume of 20 mL. […] The DMSO concentration varied from 0.1% to 0.8% (v/v) depending on the stock concentration of the test compound. The highest DMSO concentration was used as the DMSO control. The J2s were incubated in the soil and chemical for 24 hours, after which two- to three-week old tomato seedlings were transplanted into the soil (one plant per cell). Two replicates were performed for each chemical treatment, and four replicates were done for the DMSO controls. The whole experiment was replicated twice, in two different batches on two different days, for a total of four replicates for each test compound treatment, and eight replicates for the DMSO controls. Inoculated plants were grown for 8 weeks in a greenhouse, as described^47, under long-day conditions (16-h photoperiod) with 26/18° C. day/night temperatures. After 8 weeks, the plants were destructively harvested. The tops were removed and discarded, and roots were gently washed with water to remove adhering soil. Eggs were extracted by placing rinsed roots in 0.6% sodium hypochlorite and agitating at 300 rpm for 3 min. Roots were then rinsed over nested 250—and 25.4-μm sieves, with eggs collected from the latter and suspended in water. Roots were dried in a 65° C. oven for at least 24 hours, after which dry roots were weighed. The number of eggs from each plant root was counted on a dissection microscope using a haemocytometer, and the number of eggs per milligram of root was calculated by dividing the total egg number by the mass of the dried root material. An average was taken across the replicates performed on the same day, and then normalized to the DMSO control average. […] An average percent effectiveness value was then calculated across the two different batches carried out on different days.

M. incognita J2 larvae = test: Meloidogyne incognita in vitro larval mobility assay; assay type: in vivo; settings: 45 μM, 4 days; for Replicate 1 z-score / Replicate 2 z-score: z-score vs untreated DMSO wells; for pest or weed control at 45 µM: Meloidogyne incognita, 96 h
Method: M. incognita (Kofoid & White) Chitwood Race 1 (originally isolated in Maryland) was used for all experiments, and was maintained on pepper (Capsicum annuum L.) cv. PA-136 in a greenhouse as previously described^44. Infective J2 juveniles were collected as described in ref. 45. The microwell dose-response experiments were carried out similarly to previously described protocols^44,46. In brief, 50 μL of deionized water was added to the wells of 96-well polystyrene plates and 0.5 μL of test compound (or DMSO alone) was added to each well. Approximately 35 J2s were then added to each well in 49.5 μL of deionized water. The chemicals were tested at 45 μM, and the final concentration of DMSO in each well was 0.5% (v/v). DMSO alone was added to 3 separate wells. The plates were covered with plastic adhesive strips, and the lids of the plates were sealed with parafilm. The plates were incubated at 25° C. without shaking for 4 days. The percent of worms that were immobile (% immobile) was quantified by counting the number of immobile worms after 4 days of incubation, dividing the number of immobile worms by the total number of worms in the well, and then multiplying by 100. Two replicates were performed for each treatment. The z-score for each treatment was calculated using the mean and standard deviation of the untreated DMSO control wells. The average % immobile value was calculated across the two replicates. A test compound was considered most promising if the z-score was greater than 1.645 in both replicates.

M. hapla eggs = test: Meloidogyne hapla in vitro egg hatch assay; assay type: in vivo; settings: 45 μM; for Number of Hatched Eggs: 8 days at room temperature, about 90 eggs per well, tested once; for Number of Hatched Eggs z-score: 8 days, z-score vs 8 untreated DMSO wells
Method: The M. hapla were originally obtained from a soil sample of muck soil from Ste-Clotilde, Quebec, Canada. Using tweezers, egg masses were carefully removed from root material from infested carrot roots. Eggs were liberated from the egg masses using a mild sodium hypochlorite bleaching protocol, whereby egg masses were bleached with a 10% commercial bleach (sodium hypochlorite) solution for 4 minutes with vigorous shaking, and then washed 5 times with deionized water. 50 μL of deionized water was added to each well of two 96-well polystyrene culture plates, and 0.5 μL of chemical (or DMSO alone) was added to each well. Approximately 90 eggs were added to each well in 49.5 ul of deionized water. The plates were sealed with parafilm and incubated for 8 days at room temperature without shaking in a Tupperware box filled with wet paper towels. After the 8-day incubation, the number of hatched eggs was counted for each treatment and for the untreated controls. Each chemical treatment was tested only once. 8 separate untreated DMSO controls were included in the experiment. The z-score for each treatment was calculated using the mean and standard deviation of the untreated DMSO control wells.

[1] = lowest concentration at which at least 20% of worms die, read-out: Minimum Lethal Concentration
[2] = same values in ppm, read-out: Minimum Lethal Concentration (ppm)
[3] = average of the two replicates, read-out: Average % Immobile
[4] = replicate 1, read-out: Replicate 1 % Immobile
[5] = replicate 2, read-out: Replicate 2 % Immobile

SMILES | minimal effective concentration (C. elegans; [1]) [µM] | minimal effective concentration (C. elegans; [2]) [µg/mL] | pest or weed control at 45 µM (M. incognita) [%] | Normalized root mass (relative to DMSO control) (tomato plants) | Replicate 1 z-score (M. incognita J2 larvae; replicate 1) | Replicate 2 z-score (M. incognita J2 larvae; replicate 2) | pest or weed control at 45 µM (M. incognita J2 larvae; [3]) [%] | pest or weed control at 45 µM (M. incognita J2 larvae; [4]) [%] | pest or weed control at 45 µM (M. incognita J2 larvae; [5]) [%] | Number of Hatched Eggs (M. hapla eggs) | Number of Hatched Eggs z-score (M. hapla eggs)
CC(C)(C)c1ccc(-c2cn3ccsc3n2)cc1 [I-12] | 100 | 25.6 | – | – | – | – | – | – | – | – | –
Nc1ccc(-c2cn3ccsc3n2)cc1 [I-44] | > 100 | > 21.5 | – | – | – | – | – | – | – | – | –
Cc1csc2nc(-c3ccccc3Br)cn12 [I-40] | > 100 | > 29.3 | – | – | – | – | – | – | – | – | –
Cc1c(-c2cccc(F)c2)nc2sccn12 [I-15] | > 100 | > 23.2 | 5.8 | 1.35 | – | – | – | – | – | – | –
Cc1ccc(-c2cn3ccsc3n2)cc1 [I-2] | 50 | 14.8 | – | – | [14.54] | [6.03] | 68.5 | 93.8 | 43.1 | – | –
Cc1cn2cc(-c3cccc(Br)c3)nc2s1 [I-37] | > 100 | > 29.3 | 21.6 | 1.31 | – | – | – | – | – | – | –
Cc1cn2cc(-c3cccc(Cl)c3)nc2s1 [I-26] | 25 | 6.2 | 0 | 1.43 | [6.47] | [1.92] | 37.4 | 54.4 | 20.4 | – | –
Cc1ccc(-c2cn3ccsc3n2)cc1C [I-6] | > 100 | > 22.8 | – | – | [4.25] | [3.22] | 35.5 | 43.5 | 27.6 | – | –
CCc1ccc(-c2nc3sccn3c2C)cc1 [I-8] | 50 | 12.1 | – | – | – | – | – | – | – | – | –
Cc1ccc(-c2cn3cc(C)sc3n2)cc1 [I-5] | 25 | 5.7 | – | – | – | – | – | – | – | – | –
Ic1cccc(-c2cn3ccsc3n2)c1 [I-42] | 25 | 8.2 | – | – | [5.89] | [11.03] | 61.1 | 51.5 | 70.7 | – | –
CCc1cccc(-c2cn3ccsc3n2)c1 [I-11] | 100 | 22.8 | – | – | – | – | – | – | – | 3 | [3.64]
Cc1csc2nc(-c3cccc(Br)c3)cn12 [I-36] | > 100 | > 29.3 | – | – | – | – | – | – | – | – | –
Brc1cccc(-c2cn3ccsc3n2)c1 [I-34] | 50 | 14 | – | – | [15.00] | [14.11] | ≥ 75 | 96.1 | 87.8 | 1 | [4.30]
Cc1ccc(-c2cn3c(C)csc3n2)cc1 [I-4] | 100 | 22.8 | – | – | – | – | – | – | – | 4 | [3.31]

Reference: patent US20240109914A1, “IMIDAZOTHIAZOLE COMPOUNDS AND ANALOGS THEREOF AND METHODS FOR TREATING NEMATODE INFECTIONS IN PLANTS” (The Governing Council of The University of Toronto, priority 2021, published 2024)
